Patent publication US20250376472A1, “3-(PHENYLSULFONYL)-[1,2,3]TRIAZOLO[1,5A]QUINAZOLIN-5(4H)-ONE DERIVATIVES” (priority 2022, published 2025)

Target: T1, AgrA (Staphylococcus aureus, UniProt P0A0I7)
T1 construct: endogenous in cells; host or cells: S. aureus USA300 strain UAMS-1625 carrying a P3-lacZ reporter plasmid
Assay: cell-based
Set-up: species or system S. aureus
Conditions: for Ratio IC50 (in presence of HSA)/IC50 (in absence of HSA): 40 mg/mL HSA versus no HSA
Description: The inventive compounds are 3-(phenylsulfonyl)-[1,2,3]triazolo[1,5a]quinazolin-5(4h)-one derivatives comprising an N-bound piperazine or homopiperazine at the 8-position of the [1,2,3]triazolo[1,5a]quinazolin-5(4h)-one core, further substituted (on the second nitrogen atom) by an (optionally substituted) acetyl or propionyl amide group. […] Specifically, the reporter gene lacZ (which encodes the protein product β-galactosidase) was transfected into S. aureus with a plasmid under control of the P3 promoter. The compounds were serially diluted in lysogeny broth (LB), and incubated with S. aureus. Following incubation, the S. aureus cells were lysed and treated with 4-methylumbelliferyl-galactopyranoside (MUG). The β-galactosidase produced by expression of lacZ cleaved the MUG into galactopyranose and 4-methylumbelliferone, which was measured by fluorescence.
The resulting reporter strain was used to measure AgrA inhibitory activity as follows. From an overnight culture plate, cells were resuspended in 0.9% (w/v) saline solution and bacterial inoculum was prepared in LB medium with 5×10^5 CFU/ml. Compounds were two-fold serially diluted in LB and 50 μL of this 10× concentrated samples were added into the 96-deep well plate. 500 μL of bacterial suspension was finally added to the compounds or DMSO control. Plates were covered and incubated with shaking at 37° C. After 18 hours incubation, 100 μL was transferred to a new clear 96-well plate and the OD600 was measured using a TECAN Infinite F200 microplate reader to control for growth inhibition. Another 100 μL was transferred to a new black 96-well plate containing 30 μL of lysis buffer (20 mM Tris/HCl, 3 mM MgCl2, 0.5% Tween 20 (v/v), 0.5% NP-40 (v/v)) and the plate was incubated with shaking at 37° C. for 60 min. 20 μL of the substrate MUG (4-Methylumbelliferyl O-D-galactopyranoside) at 0.25 mg/ml was added and the fluorescence (excitation: 360 nm, emission: 450 mu) was measured with a TECAN Infinite F200 microplate reader after 3 hours incubation at 37° C. with shaking. The IC50 was determined using GraphPad PRISM after normalization to DMSO control.

[1] = LB medium supplemented with human serum albumin 40 mg/mL
[2] = LB medium, no human serum albumin, 18 hours incubation
[3] = IC50 at 40 mg/mL HSA, LB medium supplemented with human serum albumin 40 mg/mL
[4] = IC50 without HSA, LB medium, no human serum albumin, 18 hours incubation

T1 sequence (P0A0I7 whole entry): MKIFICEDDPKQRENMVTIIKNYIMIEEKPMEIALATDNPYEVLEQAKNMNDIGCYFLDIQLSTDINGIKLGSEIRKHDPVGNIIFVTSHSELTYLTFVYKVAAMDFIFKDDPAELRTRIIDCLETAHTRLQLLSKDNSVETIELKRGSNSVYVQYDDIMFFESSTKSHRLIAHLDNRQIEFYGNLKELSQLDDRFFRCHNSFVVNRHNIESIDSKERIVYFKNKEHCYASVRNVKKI

Cc1ccc(S(=O)(=O)c2nnn3c2[nH]c(=O)c2ccc(N4CCCN(CC(=O)NC5CCCCC5)CC4)cc23)c(C)c1 [Compound 53]
Ratio IC50 (in presence of HSA)/IC50 (in absence of HSA): +++ (+++: ratio ≤ 25) | IC50 at 40 mg/mL HSA [1]: ++ (++: 10 μg/mL < IC50 ≤ 50 μg/mL) | IC50 without HSA [2]: ++ (++: 1 μg/mL < IC50 ≤ 5 μg/mL)

Cc1ccc(S(=O)(=O)c2nnn3c2[nH]c(=O)c2ccc(N4CCN(CC(=O)N5CCC5)CC4)cc23)c(C)c1 [Compound 54]
IC50 [3]: 18.7 to 93.3 µM | IC50 [4]: < 1.87 µM

Cc1ccc(S(=O)(=O)c2nnn3c2[nH]c(=O)c2ccc(N4CCN(CC(=O)N5CCCCC5)CC4)cc23)c(C)c1 [Compound 55]
IC50 [3]: 17.7 to 88.7 µM | IC50 [4]: < 1.77 µM

Cc1ccc(S(=O)(=O)c2nnn3c2[nH]c(=O)c2ccc(N4CCN(CC(=O)N5CCCCCC5)CC4)cc23)c(C)c1 [Compound 56]
Ratio IC50 (in presence of HSA)/IC50 (in absence of HSA): ++ (++: 25 < ratio ≤ 125) | IC50 at 40 mg/mL HSA [1]: ++ (++: 10 μg/mL < IC50 ≤ 50 μg/mL) | IC50 without HSA [2]: +++ (+++: IC50 ≤ 1 μg/mL)

Cc1ccc(S(=O)(=O)c2nnn3c2[nH]c(=O)c2ccc(N4CCN(CC(=O)N5CCCOCC5)CC4)cc23)c(C)c1 [Compound 57]
IC50 [3]: 17.3 to 86.3 µM | IC50 [4]: < 1.73 µM

Cc1ccc(S(=O)(=O)c2nnn3c2[nH]c(=O)c2ccc(N4CCN(CC(=O)N5CCN(C)CC5)CC4)cc23)c(C)c1 [Compound 58]
IC50 [3]: 17.3 to 86.4 µM | IC50 [4]: < 1.73 µM

Cc1ccc(S(=O)(=O)c2nnn3c2[nH]c(=O)c2ccc(N4CCN(CC(=O)N5CCN(C(C)(C)C)CC5)CC4)cc23)c(C)c1 [Compound 59]
IC50 [3]: < 16.1 µM | IC50 [4]: 1.61 to 8.05 µM

Cc1ccc(S(=O)(=O)c2nnn3c2[nH]c(=O)c2ccc(N4CCN(CC(=O)N5CCN(C6CC6)CC5)CC4)cc23)c(C)c1 [Compound 60]
IC50 [3]: < 16.5 µM | IC50 [4]: < 1.65 µM

Cc1ccc(S(=O)(=O)c2nnn3c2[nH]c(=O)c2ccc(N4CCN(CC(=O)N5CCNC(=O)C5)CC4)cc23)c(C)c1 [Compound 62]
IC50 [3]: 17.3 to 86.4 µM | IC50 [4]: 1.73 to 8.64 µM

Cc1ccc(S(=O)(=O)c2nnn3c2[nH]c(=O)c2ccc(N4CCN(CC(=O)N5CCC(F)(F)CC5)CC4)cc23)c(C)c1 [Compound 64]
IC50 [3]: 16.7 to 83.4 µM | IC50 [4]: < 1.67 µM

Cc1ccc(S(=O)(=O)c2nnn3c2[nH]c(=O)c2ccc(N4CCN(CC(=O)N5CCC(N(C)C)CC5)CC4)cc23)c(C)c1 [Compound 65]
IC50 [3]: < 16.5 µM | IC50 [4]: 1.65 to 8.24 µM

Cc1ccc(S(=O)(=O)c2nnn3c2[nH]c(=O)c2ccc(N4CCN(CC(=O)N5CCCC(O)C5)CC4)cc23)c(C)c1 (stereo not drawn) [Compound 67]
IC50 [3]: 17.3 to 86.3 µM | IC50 [4]: 1.73 to 8.63 µM

Cc1ccc(S(=O)(=O)c2nnn3c2[nH]c(=O)c2ccc(N4CCN(CC(=O)N5CCCN(C)CC5)CC4)cc23)c(C)c1 [Compound 69]
IC50 [3]: < 16.9 µM | IC50 [4]: 1.69 to 8.44 µM

Cc1ccc(S(=O)(=O)c2nnn3c2[nH]c(=O)c2ccc(N4CCN(CC(=O)N5CCCN(C(C)C)CC5)CC4)cc23)c(C)c1 [Compound 70]
IC50 [3]: 16.1 to 80.5 µM | IC50 [4]: < 1.61 µM

Cc1ccc(S(=O)(=O)c2nnn3c2[nH]c(=O)c2ccc(N4CCN(CC(=O)N5CCCN(CCO)CC5)CC4)cc23)c(C)c1 [Compound 71]
IC50 [3]: 16.1 to 80.3 µM | IC50 [4]: 1.61 to 8.03 µM

Cc1ccc(S(=O)(=O)c2nnn3c2[nH]c(=O)c2ccc(N4CCN(CC(=O)N5CCCC(=O)CC5)CC4)cc23)c(C)c1 [Compound 72]
IC50 [3]: 16.9 to 84.5 µM | IC50 [4]: < 1.69 µM

Cc1ccc(S(=O)(=O)c2nnn3c2[nH]c(=O)c2ccc(N4CCN(CC(=O)N5CC(C6CC6)C5)CC4)cc23)c(C)c1 [Compound 73]
IC50 [3]: 17.4 to 86.9 µM | IC50 [4]: < 1.74 µM

Cc1ccc(S(=O)(=O)c2nnn3c2[nH]c(=O)c2ccc(N4CCN(CC(=O)N5C(C)CCC5C)CC4)cc23)c(C)c1 (stereo not drawn) [Compound 74]
Ratio IC50 (in presence of HSA)/IC50 (in absence of HSA): +++ (+++: ratio ≤ 25) | IC50 at 40 mg/mL HSA [1]: ++ (++: 10 μg/mL < IC50 ≤ 50 μg/mL) | IC50 without HSA [2]: +++ (+++: IC50 ≤ 1 μg/mL)

Cc1ccc(S(=O)(=O)c2nnn3c2[nH]c(=O)c2ccc(N4CCN(CC(=O)N5CCC(O)C5)CC4)cc23)c(C)c1 (stereo not drawn) [Compound 75]
Ratio IC50 (in presence of HSA)/IC50 (in absence of HSA): +++ (+++: ratio ≤ 25) | IC50 at 40 mg/mL HSA [1]: ++ (++: 10 μg/mL < IC50 ≤ 50 μg/mL) | IC50 without HSA [2]: ++ (++: 1 μg/mL < IC50 ≤ 5 μg/mL)

Cc1ccc(S(=O)(=O)c2nnn3c2[nH]c(=O)c2ccc(N4CCN(CC(=O)N5CCCC5CO)CC4)cc23)c(C)c1 (stereo not drawn) [Compound 76]
Ratio IC50 (in presence of HSA)/IC50 (in absence of HSA): +++ (+++: ratio ≤ 25) | IC50 at 40 mg/mL HSA [1]: ++ (++: 10 μg/mL < IC50 ≤ 50 μg/mL) | IC50 without HSA [2]: ++ (++: 1 μg/mL < IC50 ≤ 5 μg/mL)

Cc1ccc(S(=O)(=O)c2nnn3c2[nH]c(=O)c2ccc(N4CCCN(CC(=O)N5CCCC5)CC4)cc23)c(C)c1 [Compound 83]
Ratio IC50 (in presence of HSA)/IC50 (in absence of HSA): +++ (+++: ratio ≤ 25) | IC50 at 40 mg/mL HSA [1]: +++ (+++: IC50 ≤ 10 μg/mL) | IC50 without HSA [2]: ++ (++: 1 μg/mL < IC50 ≤ 5 μg/mL)

Cc1ccc(S(=O)(=O)c2nnn3c2[nH]c(=O)c2ccc(N4CCCN(CC(=O)N5CCOCC5)CC4)cc23)c(C)c1 [Compound 84]
Ratio IC50 (in presence of HSA)/IC50 (in absence of HSA): +++ (+++: ratio ≤ 25) | IC50 at 40 mg/mL HSA [1]: +++ (+++: IC50 ≤ 10 μg/mL) | IC50 without HSA [2]: ++ (++: 1 μg/mL < IC50 ≤ 5 μg/mL)

Cc1ccc(S(=O)(=O)c2nnn3c2[nH]c(=O)c2ccc(N4CCCN(CC(=O)N5CCCCC5)CC4)cc23)c(C)c1 [Compound 85]
IC50 [3]: 17.3 to 86.5 µM | IC50 [4]: 1.73 to 8.65 µM

Cc1ccc(S(=O)(=O)c2nnn3c2[nH]c(=O)c2ccc(N4CCN(CC(=O)NC5CCN(C)CC5)CC4)cc23)c(C)c1 [Compound 86]
IC50 [3]: 16.9 to 84.4 µM | IC50 [4]: 1.69 to 8.44 µM

Cc1ccc(S(=O)(=O)c2nnn3c2[nH]c(=O)c2ccc(N4CCN(CC(=O)NC5CCOCC5)CC4)cc23)c(C)c1 [Compound 87]
Ratio IC50 (in presence of HSA)/IC50 (in absence of HSA): +++ (+++: ratio ≤ 25) | IC50 at 40 mg/mL HSA [1]: +++ (+++: IC50 ≤ 10 μg/mL) | IC50 without HSA [2]: +++ (+++: IC50 ≤ 1 μg/mL)

Cc1ccc(S(=O)(=O)c2nnn3c2[nH]c(=O)c2ccc(N4CCN(CC(=O)NCC5CCN(C)CC5)CC4)cc23)c(C)c1 [Compound 88]
IC50 [3]: 16.5 to 82.4 µM | IC50 [4]: 1.65 to 8.24 µM

Cc1ccc(S(=O)(=O)c2nnn3c2[nH]c(=O)c2ccc(N4CCN(CC(=O)NCCN5CCN(C)CC5)CC4)cc23)c(C)c1 [Compound 89]
IC50 [3]: 16.1 to 80.4 µM | IC50 [4]: 1.61 to 8.04 µM

Cc1ccc(S(=O)(=O)c2nnn3c2[nH]c(=O)c2ccc(N4CCN(CC(=O)NCCN5CCCCC5)CC4)cc23)c(C)c1 [Compound 90]
IC50 [3]: 16.5 to 82.4 µM | IC50 [4]: 1.65 to 8.24 µM

Cc1ccc(S(=O)(=O)c2nnn3c2[nH]c(=O)c2ccc(N4CCN(CC(=O)NCCN5CCOCC5)CC4)cc23)c(C)c1 [Compound 91]
IC50 [3]: 16.4 to 82.1 µM | IC50 [4]: 1.64 to 8.21 µM

Cc1ccc(S(=O)(=O)c2nnn3c2[nH]c(=O)c2ccc(N4CCN(CC(=O)NCCCN5CCOCC5)CC4)cc23)c(C)c1 [Compound 92]
IC50 [3]: 16.1 to 80.3 µM | IC50 [4]: 1.61 to 8.03 µM

CCN1CCCC1CNC(=O)CN1CCN(c2ccc3c(=O)[nH]c4c(S(=O)(=O)c5ccc(C)cc5C)nnn4c3c2)CC1 (stereo not drawn) [Compound 93]
IC50 [3]: < 16.5 µM | IC50 [4]: 1.65 to 8.24 µM

Cc1ccc(S(=O)(=O)c2nnn3c2[nH]c(=O)c2ccc(N4CCN(CC(=O)NCCN5CCCC5)CC4)cc23)c(C)c1 [Compound 94]
IC50 [3]: 16.9 to 84.4 µM | IC50 [4]: 1.69 to 8.44 µM

Cc1ccc(S(=O)(=O)c2nnn3c2[nH]c(=O)c2ccc(N4CCN(CC(=O)NCCC5CCCN5C)CC4)cc23)c(C)c1 (stereo not drawn) [Compound 95]
Ratio IC50 (in presence of HSA)/IC50 (in absence of HSA): +++ (+++: ratio ≤ 25) | IC50 at 40 mg/mL HSA [1]: ++ (++: 10 μg/mL < IC50 ≤ 50 μg/mL) | IC50 without HSA [2]: ++ (++: 1 μg/mL < IC50 ≤ 5 μg/mL)
